From BindingDB's records for doi:10.1016/s0960-894x(00)00136-0 (Iowa State University, 2000) come the findings set out here.

Assay [1] has as its target Endothelin-1 receptor (rabbit). Put plainly: Tested for binding affinity towards rabbit Endothelin A receptor.
For assay [2], the target named is Endothelin receptor type B (rabbit). Nature of the assay: Tested for binding affinity towards rabbit Endothelin B receptor.

SMILES strings stand for the structures.

Usually IC50 stands for the concentration at which inhibition is half-maximal.

Regarding `C/C=C/C=C/C(=O)O[C@@H]1C=C2COC(O)[C@]2(O)[C@@]2(C)CCCC(C)(C)C12` (stereo partly drawn) [(2E,4E)-Hexa-2,4-dienoic acid (5R,9aS,9bS)-1,9b-dihydroxy-6,6,9a-trimethyl-1,3,5,5a,6,7,8,9,9a,9b-decahydro-naphtho[1,2-c]furan-5-yl ester], the IC50 came out at 50 µM in assay [1] and 70 µM in assay [2].
